Results as given in publication PMC8883573, “New Insights Into the Function of Flavohemoglobin in Mycobacterium tuberculosis: Role as a NADPH-Dependent Disulfide Reductase and D-Lactate-Dependent Mycothione Reductase” (Frontiers in Cellular and Infection Microbiology, 2022).

Assays:
trxB = trxB (Mycobacterium tuberculosis, UniProt P9WHH1); test: DTNB reduction, absorbance at […] nm; format: biochemical; conditions: 5 mM DTNB, 250 µM NADPH, 100 mM potassium phosphate pH 7.0, 2 mM EDTA, 25 °C
[1] = test system: O=C(O)c1cc(SSc2ccc([N+](=O)[O-])c(C(=O)O)c2)ccc1[N+](=O)[O-]; test: purified protein; format: biochemical, Mycolicibacterium smegmatis; conditions: pH 7.0

trxB, sequence (P9WHH1 2-335): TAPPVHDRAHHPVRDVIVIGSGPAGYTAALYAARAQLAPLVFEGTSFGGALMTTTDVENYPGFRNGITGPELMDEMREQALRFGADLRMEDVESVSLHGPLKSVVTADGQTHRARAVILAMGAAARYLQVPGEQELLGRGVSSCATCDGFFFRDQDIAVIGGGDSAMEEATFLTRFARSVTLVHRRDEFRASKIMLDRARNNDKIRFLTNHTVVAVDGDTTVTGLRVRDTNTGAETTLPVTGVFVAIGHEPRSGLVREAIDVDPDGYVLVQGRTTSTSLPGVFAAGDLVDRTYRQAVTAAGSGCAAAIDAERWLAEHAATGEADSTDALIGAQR

NC(=O)C1=CN([C@@H]2O[C@H](COP(=O)(O)OP(=O)(O)OC[C@H]3O[C@@H](n4cnc5c(N)ncnc54)[C@H](OP(=O)(O)O)[C@@H]3O)[C@@H](O)[C@H]2O)C=CC1 [NADPH]
DTNB reduction, absorbance at 412 nm (trxB; electron donor for DTNB reduction): NADPH-dependent reduction of DTNB by MtbFHb, MsFHbII, and trxB

MsFHbII (Mycolicibacterium smegmatis MC2 155)
Km [1]: 93.7 ± 7.6 µM

O=C(O)c1cc(SSc2ccc([N+](=O)[O-])c(C(=O)O)c2)ccc1[N+](=O)[O-] [DTNB, 5,5’-dithiobis-(2-nitrobenzoic acid)]
DTNB reduction, absorbance at 412 nm (trxB): NADPH-dependent reduction of DTNB by MtbFHb, MsFHbII, and trxB
